According to patent US12383534B2, “Methods for treating cancer” (REGENTS OF THE UNIVERSITY OF MINNESOTA, priority 2021, dated 2025):

What was measured:
[1] = tested on: CIC-DUX4 target genes ETV1, 4, and 5; experiment: RT-qPCR for CIC-DUX4 target genes in NCC-CDS-X1 cells; assay type: cell-based, human; settings: NCC-CDS-X1, 24 hours, highest concentration
Experimental: RNA was extracted using an RNA extraction kit (Zymo) and cDNA was made using 0.5 μg total RNA with oligo-dT primer and Verso cDNA Synthesis Kit (Thermo Scientific) following the manufacturer's instructions. qPCRs were performed by using Premix Ex Taq (Probe qPCR, Takara) or SYBR-green. Gene expression levels were normalized to that of GAPDH and analyzed with 7500 System Software using the ACT method (Applied Biosystems). RNA-seq library preparation was done with 500 ng total RNA from NCC-CDS-X1 cells treated for 4 or 24 hours with iP300w (0.3 μM) using the Swift Rapid RNA Library Kit (SwiftBioscience). 36 base paired-end sequencing was performed on an Illumina NextSeq instrument at the University of Minnesota Genomics Center.
Next, the effect of the stereoisomers on the CIC-DUX4 target genes in cells cultured with the compounds for 24 hours was analyzed.

[2] = tested on: wide spectrum of cancer cell lines; settings: cited from earlier work
[3] = tested on: NCC-CDS-X1 cells (CIC-DUX4 sarcoma cell line); experiment: Cell viability (ATP) assay in NCC-CDS-X1 cells; assay type: cell-based, human
Experimental: Basal media were purchased from HyClone, fetal bovine serum (FBS) was from PeakSerum (Ps-FB3, lot 293Q16), and Glutamax (Glu) and Penicillin/Streptomycin (P/S) were from GIBCO. NCC-CDS-X1 (CIC-DUX4 sarcoma cell line, a generous gift from Tadashi Kondo) cell line was cultured in RPMI with 10% FBS, Glu and P/S, Kitra-SRS (CIC-DUX4 sarcoma cell line, a generous gift from Hidetatsu Otani), 3T3, 293T and C2C12 cell lines were cultured in DMEM/10% FBS/Glu/P/S. The immortalized human myoblast LHCN-M2 cell line was cultured in proliferation medium: F10 supplemented with 20% FBS, 2-mercaptoethanol 1× (GIBCO), 10^−9 M dexamethasone (Sigma), 10 ng/mL bFGF (Peprotech), and Glu/P/S. All cells were cultured at 37° C. in a 5% CO2 atmosphere.
Cell lines were plated in a 96 well dish (1×10^5 cells/well), and the following day were treated with iP300w or its stereoisomers. ATP assays were performed using CellTiter-Glo® Luminescent Cell Viability Assay (Promega) according to the manufacturer's instructions. Luminescence was analyzed on POLARstar Optima Microplate Reader (BMG Labtech, Offenburg, Germany).
The activity of the various iP300w stereoisomers against NCC-CDS-X1 cells was evaluated. Cultures were treated with serial dilutions, ranging from 0.003 μM to 3.0 μM, for up to 96 hours. In cells treated with iP300w, a significant decrease in cell viability was evident at the lowest concentration (0.003 μM) at 48 and 96 hours (FIG. 3A). The effect was dose- and time-dependent. […] (FIG. 2B and FIG. 9).

p300 and CBP = settings: in vitro and in vivo; cited from earlier work
CDS cell lines = settings: screens of FDA-approved anticancer molecules; cited from earlier work
Kitra-SRS cells (IGF-1R) = settings: cited from earlier work

For `CNC(=O)Nc1ccc2c(c1)CC[C@@]21OC(=O)N(CC(=O)N(Cc2ccc(F)cc2)[C@@H](C)C(F)(F)F)C1=O` [A-485, reference compound], the “effect on ETV4 expression at the highest concentration” value [1] is given as “notable effect on ETV4”, the “efficacy against melanoma and NUT midline carcinoma” value ([2]; high MITF-expressing melanoma cell lines and NUT midline carcinoma) is given as “effective against high MITF-expressing melanoma cell lines” and the “effect on proliferation of cancer cell lines” value ([2]; more prominently in those of hematopoietic origin) is given as “suppress proliferation of a wide spectrum of cancer cell lines”. For the same compound, the “fold less potent than iP300w (from IC50 values)” value ([3]; NCC-CDS-X1, IC50 at 48 and 96 hours) was “approximately 200 fold”, the “activity on cell viability” value ([3]; NCC-CDS-X1, up to 96 hours, 0.003 to 3.0 μM) was “also showed activity, but at higher concentrations” and the “inhibition of acetylation by p300 and CBP” value (p300 and CBP) was “inhibit acetylation by p300 and CBP both in vitro and in vivo”.
For `CC(C)C[C@H](NC(=O)[C@H](Cc1ccccc1)NC(=O)c1cnccn1)B(O)O` [bortezomib], the “effectiveness in vitro on CDS cell lines” value (CDS cell lines) is listed as “some degree of effectiveness in vitro”.
In the case of `C[C@@H](Oc1cc(-c2cnn(C3CCNCC3)c2)cnc1N)c1c(Cl)ccc(F)c1Cl` [crizotinib], the “effectiveness in vitro on CDS cell lines” value (CDS cell lines) is given as “some degree of effectiveness in vitro”.
In the case of `C[C@]1(O)C[C@@H](c2nc(-c3ccc4ccc(-c5ccccc5)nc4c3)c3c(N)nccn32)C1` [linsitinib], the “effect on cell proliferation” value (Kitra-SRS cells (IGF-1R)) is listed as “reduced cell proliferation”.
